Legend:
[1] = tested on: OVCAR-5; experiment: Tumor cell viability (TABLE 1); format: cell-based; settings: Homo sapiens, read-out: EC50 (50% reduction in cell viability); OVCAR-5 (Ovarian); serum-free conditions, 48 hour treatment; mean ± SEM
[2] = tested on: MDA-MB-435; experiment: Tumor cell viability (TABLE 1); format: cell-based; settings: Homo sapiens, MDA-MB-435, 48 h, read-out: EC50 (50% reduction in cell viability)
[3] = tested on: D54MG; experiment: Tumor cell viability (TABLE 1); format: cell-based; settings: Homo sapiens, read-out: EC50 (50% reduction in cell viability); D54MG (Glioma); serum-free conditions, 48 hour treatment; mean ± SEM
[4] = tested on: U251; experiment: Tumor cell viability (TABLE 1); format: cell-based; settings: Homo sapiens, U-251, read-out: EC50 (50% reduction in cell viability); U251 (CNS); serum-free conditions, 48 hour treatment; mean ± SEM
[5] = tested on: ACHN; experiment: Tumor cell viability (TABLE 1); format: cell-based; settings: Homo sapiens, read-out: EC50 (50% reduction in cell viability); ACHN (Renal); serum-free conditions, 48 hour treatment
[6] = tested on: MiaPaCa; experiment: Tumor cell viability (TABLE 1); format: cell-based; settings: Homo sapiens, MIA PaCa-2, read-out: EC50 (50% reduction in cell viability); MiaPaCa (Pancreas); serum-free conditions, 48 hour treatment; mean ± SEM
[7] = tested on: PC3; experiment: Tumor cell viability (TABLE 1); format: cell-based; settings: Homo sapiens, PC-3, read-out: EC50 (50% reduction in cell viability); PC3 (Prostate); serum-free conditions, 48 hour treatment; mean ± SEM
[8] = tested on: DU-145; experiment: Tumor cell viability (TABLE 1); format: cell-based; settings: Homo sapiens, read-out: EC50 (50% reduction in cell viability); DU-145 (Prostate); serum-free conditions, 48 hour treatment; mean ± SEM
[9] = tested on: OVCAR-4; experiment: Tumor cell viability (TABLE 1); format: cell-based; settings: Homo sapiens, read-out: EC50 (50% reduction in cell viability); OVCAR-4 (Ovarian); serum-free conditions, 48 hour treatment; mean ± SEM
[10] = tested on: RXF-393; experiment: Tumor cell viability (TABLE 1); format: cell-based; settings: Homo sapiens, read-out: EC50 (50% reduction in cell viability); RXF-393 (Renal); serum-free conditions, 48 hour treatment; mean ± SEM
[11] = tested on: 786-0; experiment: Tumor cell viability (TABLE 1); format: cell-based; settings: Homo sapiens, read-out: EC50 (50% reduction in cell viability); 786-0 (Renal); serum-free conditions, 48 hour treatment; mean ± SEM
[12] = tested on: NCI/ADR-RES; experiment: Tumor cell viability (TABLE 1); format: cell-based; settings: Homo sapiens, read-out: EC50 (50% reduction in cell viability); NCI/ADR-RES (Breast); serum-free conditions, 48 hour treatment
[13] = tested on: LOX IMVI; experiment: Tumor cell viability (TABLE 1); format: cell-based; settings: Homo sapiens, read-out: EC50 (50% reduction in cell viability); LOX IMVI (Melanoma); serum-free conditions, 48 hour treatment; mean ± SEM
[14] = tested on: COLO 205; experiment: Tumor cell viability (TABLE 1); format: cell-based; settings: Homo sapiens, read-out: EC50 (50% reduction in cell viability); COLO 205 (Colorectal); serum-free conditions, 48 hour treatment; mean ± SEM
[15] = tested on: HS-578T; experiment: Tumor cell viability (TABLE 1); format: cell-based; settings: Homo sapiens, read-out: EC50 (50% reduction in cell viability); HS-578T (Breast); serum-free conditions, 48 hour treatment; mean ± SEM
[16] = tested on: HCT-116; experiment: Tumor cell viability (TABLE 1); format: cell-based; settings: Homo sapiens, read-out: EC50 (50% reduction in cell viability); HCT-116 (Colorectal); serum-free conditions, 48 hour treatment; mean ± SEM
[17] = tested on: NCI-H23; experiment: Tumor cell viability (TABLE 1); format: cell-based; settings: Homo sapiens, read-out: EC50 (50% reduction in cell viability); NCI-H23 (Non-Small Cell Lung); serum-free conditions, 48 hour treatment; mean ± SEM
[18] = tested on: SK-MEL-5; experiment: Tumor cell viability (TABLE 1); format: cell-based; settings: Homo sapiens, read-out: EC50 (50% reduction in cell viability); SK-MEL-5 (Melanoma); serum-free conditions, 48 hour treatment; mean ± SEM
[19] = tested on: T47D; experiment: Tumor cell viability (TABLE 1); format: cell-based; settings: Homo sapiens, read-out: EC50 (50% reduction in cell viability); T47D (Breast); serum-free conditions, 48 hour treatment
[20] = tested on: acute lymphoblastoid leukemia, small cell lung cancer, prostate cancer, non-small cell lung cancer, and follicular lymphoma tumors (RS11380, DoHH2 and SuDHL-4); settings: follicular lymphoma (RS11380, DoHH2, SuDHL-4)
[21] = tested on: OVCAR-3; experiment: Tumor cell viability (TABLE 1); format: cell-based; settings: Homo sapiens, read-out: EC50 (50% reduction in cell viability); OVCAR-3 (Ovarian); serum-free conditions, 48 hour treatment; mean ± SEM
[22] = tested on: human tumor cell lines derived from small cell lung carcinomas and lymphoid malignancies of both T-cell and B-cell origin; settings: small cell lung carcinoma and T-cell / B-cell lymphoid malignancy cell lines
[23] = tested on: DoHH2 follicular lymphoma flank tumors; experiment: DoHH2 follicular lymphoma model; format: in vivo
[24] = tested on: SF-268; experiment: Tumor cell viability (TABLE 1); format: cell-based; settings: Homo sapiens, read-out: EC50 (50% reduction in cell viability); SF-268 (CNS); serum-free conditions, 48 hour treatment; mean ± SEM
[25] = tested on: SF-539; experiment: Tumor cell viability (TABLE 1); format: cell-based; settings: Homo sapiens, read-out: EC50 (50% reduction in cell viability); SF-539 (CNS); serum-free conditions, 48 hour treatment; mean ± SEM
[26] = established flank tumors, sustained period of time

Compound `CN(C)CC[C@H](CSc1ccccc1)Nc1ccc(S(=O)(=O)NC(=O)c2ccc(N3CCN(Cc4ccccc4-c4ccc(Cl)cc4)CC3)cc2)cc1[N+](=O)[O-]` [EXAMPLE 2, N-(4-(4-((4′-chloro(1,1′-biphenyl)-2-yl)methyl)piperazin-1-yl)benzoyl)-4-(((1R)-3-(dimethylamino)-1-((phenylsulfanyl)methyl)propyl)amino)-3-nitrobenzenesulfonamide] has an EC50 [1] of 1100 nM, an EC50 [2] of 2400 nM and an EC50 [3] of 3100 ± 2500 nM. For the same compound, the EC50 [4] was 3800 ± 2000 nM, the EC50 [5] was 1000 nM and the EC50 [6] was 1400 ± 600 nM. For the same compound, the EC50 [7] was 960 ± 380 nM, the EC50 [8] was 8200 ± 1100 nM and the EC50 [9] was 22000 ± 3000 nM. It also gave an EC50 [10] of 2900 ± 400 nM, an EC50 [11] of 2900 ± 100 nM and an EC50 [12] greater than 10000 nM. For the same compound, the EC50 [13] was 1700 ± 400 nM, the EC50 [14] was 510 ± 70 nM and the EC50 [15] was 7200 ± 8200 nM. The EC50 [16] was 2100 ± 1800 nM, the EC50 [17] was 7400 ± 600 nM and the EC50 [18] was 3700 ± 800 nM. The EC50 [19] was greater than 10000 nM, the “therapeutic utility in xenograft models” value [20] was “displayed therapeutic utility” and the EC50 [21] was 1900 ± 300 nM. For the same compound, the “therapeutic utility against human tumor cell lines” value [22] was “displayed therapeutic utility”, the “tumor regression, combination with Rituxin®” value [23, 26] was “complete regression of a significant percentage of established DoHH2 follicular lymphoma flank tumors” and the “tumor regression, combination with rapamycin” value [23, 26] was “complete regression of a significant percentage of established DoHH2 follicular lymphoma flank tumors”. The tumor growth ([23]; model of follicular lymphoma (DOHH-2)) was “inhibited tumor growth”, the EC50 [24] was 8300 ± 400 nM and the EC50 [25] was 4100 ± 600 nM.

Reference: US20050159427A1, “N-acylsulfonamide apoptosis promoters” (priority 2003, published 2005)
